# Patent US20020026053A1, “Novel 3-(substituted) -2- indolinones compounds and use thereof as inhibitors of protein kinase activity” (priority 1997, published 2002)
# System: FLK-1 receptor
# Experiment: FLK-1 Assay (cellular/catalytic ELISA, VEGF-stimulated phosphotyrosine)
# Assay type: cell-based
# Parameters: concentration or dose not given beside the values
# Details: protocol P.110
# Procedure, shortened: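 Receptor phosphotyrosine ELISA: Flk-1-expressing NIH3T3 C7#3 cells, starved overnight in 0.1% FBS medium, received compound (1:200 final dilution, 0.5% DMSO) for 2 h at 37 °C, then VEGF. Anti-FLK-1-captured receptor was probed with anti-phosphotyrosine UB40 and peroxidase/ABTS read-out, relative to cells without compound.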
row,SMILES,Flk Kinase % Inhibition (P.110) [%]
1,Cc1ccc(C)c(C=C2C(=O)Nc3c(Br)cc(Br)c(C)c32)c1 [10737/H07],15.5
2,Cc1c(Br)cc(Br)c2c1C(=Cc1ccc3ccccc3c1)C(=O)N2 [10737/H08],10.0
3,Cc1c(Br)cc(Br)c2c1C(=Cc1ccc(Oc3ccccc3)cc1)C(=O)N2 [10737/H09],5.5
4,Cc1c(Br)cc(Br)c2c1C(=Cc1cccc(Oc3ccc(C(C)(C)C)cc3)c1)C(=O)N2 [10737/H10],10.5
5,Cc1c(Br)cc(Br)c2c1C(=Cc1cccc(Oc3cccc(C(F)(F)F)c3)c1)C(=O)N2 [10737/H11],14.5
6,Cc1ccc(Oc2cccc(C=C3C(=O)Nc4c(Br)cc(Br)cc43)c2)cc1 [10738/A02],−14.2
7,O=C1Nc2c(Br)cc(Br)cc2C1=Cc1cccc(Oc2ccc(Cl)c(Cl)c2)c1 [10738/A03],12.8
8,COc1ccc(C=C2C(=O)Nc3c(Br)cc(Br)cc32)cc1O [10738/A04],−16.2
9,O=C1Nc2c(Br)cc(Br)cc2C1=Cc1cc(O)ccc1[N+](=O)[O-] [10738/A05],−24.5
10,O=C1Nc2c(Br)cc(Br)cc2C1=Cc1cccc(O)c1O [10738/A06],77.3
11,O=C1Nc2c(Br)cc(Br)cc2C1=Cc1cc(O)cc(O)c1 [10738/A07],−22.1
12,O=C1Nc2c(Br)cc(Br)cc2C1=Cc1ccc(Cl)c(Cl)c1 [10738/A08],−9.3
13,COc1ccccc1C=C1C(=O)Nc2c(Br)cc(Br)cc21 [10738/A09],−9.8
14,CC(C)c1ccc(C=C2C(=O)Nc3c(Br)cc(Br)cc32)cc1 [10738/A10],−8.5
15,CCCOc1ccc(C=C2C(=O)Nc3c(Br)cc(Br)cc32)cc1 [10738/A11],−7.5
16,Cc1ccc(Oc2cccc(C=C3C(=O)Nc4ccc(I)cc43)c2)cc1 [10738/B02],−8.5
17,O=C1Nc2ccc(I)cc2C1=Cc1cccc(Oc2ccc(Cl)c(Cl)c2)c1 [10738/B03],−1.2
18,COc1ccc(C=C2C(=O)Nc3ccc(I)cc32)cc1O [10738/B04],55.0
19,O=C1Nc2ccc(I)cc2C1=Cc1cc(O)ccc1[N+](=O)[O-] [10738/B05],−13.1

row,SMILES,Flk Kinase % Inhibition (P.110) [%]
1,O=C1Nc2ccc(I)cc2C1=Cc1cccc(O)c1O [10738/B06],−44.1
2,O=C1Nc2ccc(I)cc2C1=Cc1cc(O)cc(O)c1 [10738/B07],−22.7
3,O=C1Nc2ccc(I)cc2C1=Cc1ccc(Cl)c(Cl)c1 [10738/B08],−0.7
4,COc1ccccc1C=C1C(=O)Nc2ccc(I)cc21 [10738/B09],−6.2
5,CC(C)c1ccc(C=C2C(=O)Nc3ccc(I)cc32)cc1 [10738/B10],14.3
6,CCCOc1ccc(C=C2C(=O)Nc3ccc(I)cc32)cc1 [10738/B11],8.8
7,Cc1ccc(Oc2cccc(C=C3C(=O)Nc4ccc(Br)c(C)c43)c2)cc1 [10738/C02],−0.1
8,Cc1c(Br)ccc2c1C(=Cc1cccc(Oc3ccc(Cl)c(Cl)c3)c1)C(=O)N2 [10738/C03],28.0
9,COc1ccc(C=C2C(=O)Nc3ccc(Br)c(C)c32)cc1O [10738/C04],84.2
10,Cc1c(Br)ccc2c1C(=Cc1cc(O)ccc1[N+](=O)[O-])C(=O)N2 [10738/C05],−4.4
11,Cc1c(Br)ccc2c1C(=Cc1cccc(O)c1O)C(=O)N2 [10738/C06],−68.1
12,Cc1c(Br)ccc2c1C(=Cc1cc(O)cc(O)c1)C(=O)N2 [10738/C07],−7.4
13,Cc1c(Br)ccc2c1C(=Cc1ccc(Cl)c(Cl)c1)C(=O)N2 [10738/C08],−7.4
14,COc1ccccc1C=C1C(=O)Nc2ccc(Br)c(C)c21 [10738/C09],4.5
15,Cc1c(Br)ccc2c1C(=Cc1ccc(C(C)C)cc1)C(=O)N2 [10738/C10],−2.5
16,CCCOc1ccc(C=C2C(=O)Nc3ccc(Br)c(C)c32)cc1 [10738/C11],8.4
17,CNS(=O)(=O)c1ccc2c(c1)C(=Cc1cccc(Oc3ccc(C)cc3)c1)C(=O)N2 [10738/D02],2.8
18,CNS(=O)(=O)c1ccc2c(c1)C(=Cc1cccc(Oc3ccc(Cl)c(Cl)c3)c1)C(=O)N2 [10738/D03],13.6
19,CNS(=O)(=O)c1ccc2c(c1)C(=Cc1ccc(OC)c(O)c1)C(=O)N2 [10738/D04],−13.1

row,SMILES,Flk Kinase % Inhibition (P.110) [%]
1,CNS(=O)(=O)c1ccc2c(c1)C(=Cc1cc(O)ccc1[N+](=O)[O-])C(=O)N2 [10738/D05],−12.5
2,CNS(=O)(=O)c1ccc2c(c1)C(=Cc1cccc(O)c1O)C(=O)N2 [10738/D06],−26.7
3,CNS(=O)(=O)c1ccc2c(c1)C(=Cc1cc(O)cc(O)c1)C(=O)N2 [10738/D07],10.3
4,CNS(=O)(=O)c1ccc2c(c1)C(=Cc1ccc(Cl)c(Cl)c1)C(=O)N2 [10738/D08],11.9
5,CNS(=O)(=O)c1ccc2c(c1)C(=Cc1ccccc1OC)C(=O)N2 [10738/D09],9.4
6,CNS(=O)(=O)c1ccc2c(c1)C(=Cc1ccc(C(C)C)cc1)C(=O)N2 [10738/D10],15.4
7,CCCOc1ccc(C=C2C(=O)Nc3ccc(S(=O)(=O)NC)cc32)cc1 [10738/D11],10.4
8,Cc1ccc(Oc2cccc(C=C3C(=O)Nc4ccc(S(=O)(=O)Nc5ccc(C(F)(F)F)cc5)cc43)c2)cc1 [10738/E02],3.6
9,O=C1Nc2ccc(S(=O)(=O)Nc3ccc(C(F)(F)F)cc3)cc2C1=Cc1cccc(Oc2ccc(Cl)c(Cl)c2)c1 [10738/E03],7.8
10,COc1ccc(C=C2C(=O)Nc3ccc(S(=O)(=O)Nc4ccc(C(F)(F)F)cc4)cc32)cc1O [10738/E04],−11.5
11,O=C1Nc2ccc(S(=O)(=O)Nc3ccc(C(F)(F)F)cc3)cc2C1=Cc1cc(O)ccc1[N+](=O)[O-] [10738/E05],−4.8
12,O=C1Nc2ccc(S(=O)(=O)Nc3ccc(C(F)(F)F)cc3)cc2C1=Cc1cccc(O)c1O [10738/E06],10.1
13,O=C1Nc2ccc(S(=O)(=O)Nc3ccc(C(F)(F)F)cc3)cc2C1=Cc1cc(O)cc(O)c1 [10738/E07],43.4
14,O=C1Nc2ccc(S(=O)(=O)Nc3ccc(C(F)(F)F)cc3)cc2C1=Cc1ccc(Cl)c(Cl)c1 [10738/E08],12.8
15,COc1ccccc1C=C1C(=O)Nc2ccc(S(=O)(=O)Nc3ccc(C(F)(F)F)cc3)cc21 [10738/E09],21.2
16,CC(C)c1ccc(C=C2C(=O)Nc3ccc(S(=O)(=O)Nc4ccc(C(F)(F)F)cc4)cc32)cc1 [10738/E10],5.1
17,CCCOc1ccc(C=C2C(=O)Nc3ccc(S(=O)(=O)Nc4ccc(C(F)(F)F)cc4)cc32)cc1 [10738/E11],10.2
18,Cc1ccc(Oc2cccc(C=C3C(=O)Nc4ccc(S(=O)(=O)N5CCOCC5)cc43)c2)cc1 [10738/F02],15.0
